This is an account of results in the RepoRT retention time repository (doi:10.1021/acs.analchem.2c02893).

The nature of the data set: RP, Thermo Scientific Acclaim RSLC 120 C18, 100 × 2.1 mm, 2.2 µm, 30 °C, 0.2 mL/min, estimated dead time 1.1 min; A: 90% water + 10% methanol + 0.01% formic acid + 5 mM ammonium formate, pH 3.61; B: methanol + 0.01% formic acid + 5 mM ammonium formate, pH 3.61; gradient (min/%B) 0/1 1/1 2/39 13/99.9 15/99.9 15.1/1 20.1/1. As to conditions: stereoisomer not certain.

As for `O=C(O)CCCOc1ccc(Cl)cc1Cl` [2.4-DB], the LC retention time is 10 min. The value for `COC(=O)COc1cc(Cl)c(Cl)cc1Cl` [2.4.5-T-methylester] was 10.8 min; that for `COc1cc(CCN)c(OC)cc1Br` [2C-B] was 5.56 min. The value for `COc1cc(CCN)c(OC)cc1Cl` [2C-C] was 5.28 min; that for `CCc1cc(OC)c(CCN)cc1OC` [2C-E] was 6.48 min; that for `COc1ccc(OC)c(CCN)c1` [2C-H] was 4.43 min.

On to `COc1cc(CCN)c(OC)cc1I` [2C-I], for which the LC retention time is 6.06 min. Then `COc1cc(SC(C)C)c(OC)cc1CCN` [2C-T-4], with 6.69 min; and `CCCSc1cc(OC)c(CCN)cc1OC` [2C-T-7], with 6.98 min; and `CCSc1cc(OC)c(CCN)cc1OC` [2CT-2], with 5.88 min. Then `O=C1CC2(CCCCC2)CN1` [3,3-pentamethylene-4-butyrolactam], with 6.64 min; and `CNC(=O)Nc1ccc(Cl)c(Cl)c1` [3-4-(dichlorophenyl)-3-methyl urea], with 8.51 min; and `NC(=O)Nc1ccc(Cl)c(Cl)c1` [3-4-(dichlorophenyl)-urea], with 7.99 min. In the case of `CCCCNC(=O)OCC#CI` [3-Iodopropynyl butylcarbamate], the LC retention time is 8.05 min. The value for `O=c1[nH]c(Cl)c(Cl)cc1Cl` [3.5.6-Trichloro-2-pyridinol] was 8.96 min; that for `CCCCCCCCn1sc(Cl)c(Cl)c1=O` [4-5-Dichloro-2-n-octyl-isothiazol-3(2H)-on (DCOIT)] was 12.5 min.

Turning to `CC(=O)Oc1ccc2c(CCN(C(C)C)C(C)C)c[nH]c2c1` [4-AcO-DIPT], the LC retention time was 4.88 min. The value for `NC(=O)c1ccc(N)cc1` [4-Aminobenzamide] was 2.37 min; that for `CC12CC(O)C3C(CCC4=CC(=O)CCC43C)C1CCC2=O` (stereo not drawn) [4-Androsten-11beta-ol-3,17-dione] was 8.23 min; that for `O=C(O)CCC(=O)c1ccc(F)cc1` [4-Fluorobenzoylpropionic acid] was 6.09 min. Turning to `Cc1c(C=O)c(=O)n(-c2ccccc2)n1C` [4-Formyl-antipyrine], the LC retention time is 3.98 min. Then `CCC(=C(c1ccc(O)cc1)c1ccc(OCCN(C)C)cc1)c1ccccc1` [4-Hydroxytamoxifen], with 9.1 min; and `COc1ccc(N)cc1N` [4-Methoxy-1.3-phenylenediamine], with 2.37 min; and `CC(=O)Nc1ccc(N)cc1` [4`-Aminoacetanilide], with 2.27 min. The value for `CC(N)Cc1ccc2[nH]ccc2c1` (centres undefined) [5-(2-Aminopropyl)indole (5-API)] was 4.07 min; that for `CC(N)Cc1ccc2occc2c1` (centres undefined) [5-(2-aminopropyl)benzofuran (5-APB)] was 4.79 min; that for `Nc1cccc2cc(S(=O)(=O)O)ccc12` [5-Aminonaphthalene-2-sulfonic acid] was 3.27 min. For `c1ccc2c(c1)[nH]c1ccncc12` [5-Carboline], the LC retention time is 8.7 min. The value for `O=C(O)Cc1c[nH]c2ccc(O)cc12` [5-Hydroxyindole-3-acetic acid] was 3.93 min; that for `NC1Cc2ccc(I)cc2C1` (centres undefined) [5-Iodo-2-aminoindane (5-IAI)] was 5.87 min; that for `O=C(Nc1cccc2ccccc12)c1nn(CCCCCF)c2ccccc12` [5-fluoro MN-18] was 11.8 min.

With `S=c1nc[nH]c2nc[nH]c12` [6-Mercaptopurine], the LC retention time is 2.62 min. Consider `CC12CCC(=O)C=C1C(O)CC1C2C(O)CC2(C)C1CCC2(O)C(=O)CO` (stereo not drawn) [6-beta-Hydroxycortisol], for which the LC retention time was 4.42 min. `CN(Cc1nc2c(N)nc(N)nc2[nH]c1=O)c1ccc(C(=O)NC(CCC(=O)O)C(=O)O)cc1` (centres undefined) [7-Hydroxymethotrexat]: the LC retention time is 4.69 min.

`CC12CCC(=O)C=C1CCC1C2C(=O)CC2(C)C(O)CCC12` (centres undefined) [11-Ketotestosterone]: the LC retention time was 7.9 min. For `CC(=O)C1(O)CCC2C3CCC4=CC(=O)CCC4(C)C3CCC21C` (stereo not drawn) [17alpha-Hydroxyprogesterone], the LC retention time is 10 min. The value for `COc1cc(CCNCc2ccccc2OC)c(OC)cc1I` [25I-NBoMe] was 8.03 min.

For `CC12CCC3C(CCC4=CC(=O)CCC43C)C1CCC2=O` (centres undefined) [A4 (4-androsten-3 17-dione)], the LC retention time is 9.36 min. The value for `CC1(C)C(C(=O)c2cn(CCN3CCOCC3)c3ccccc23)C1(C)C` [A-796.260] was 10.7 min.

For `CC1(C)C(C(=O)c2cn(CC3CCOCC3)c3ccccc23)C1(C)C` [A-834.735], the LC retention time is 11.4 min. As for `CN1CCCCC1Cn1cc(C(=O)C2C(C)(C)C2(C)C)c2ccccc21` (centres undefined) [AB-005], the LC retention time was 8.81 min. The value for `CC(C)C(NC(=O)c1nn(CC2CCCCC2)c2ccccc12)C(N)=O` (centres undefined) [AB-CHMINACA] was 11.3 min; that for `CC(C)C(NC(=O)c1nn(Cc2ccc(F)cc2)c2ccccc12)C(N)=O` (centres undefined) [AB-FUBINACA] was 9.59 min. Regarding `CC(C)C(NC(=O)c1nn(CCCCCCl)c2ccccc12)C(N)=O` (centres undefined) [AB-PINACA 5Cl], the LC retention time was 9.99 min. Consider `CC(C)C(NC(=O)c1nn(CCCCCF)c2ccccc12)C(N)=O` (centres undefined) [AB-PINACA 5F], for which the LC retention time was 9.12 min. For the molecule `CCCCCn1nc(C(=O)NC(C(N)=O)C(C)C)c2ccccc21` (centres undefined) [AB-PINACA], the LC retention time was 10.5 min. On to `CC(C)C(NC(=O)c1cn(CCCCCF)c2ccccc12)C(N)=O` (centres undefined) [ABICA-5F], for which the LC retention time was 8.93 min. Then `COC(=O)C(NC(=O)c1nn(CCCCCF)c2ccccc12)C(C)(C)C` (centres undefined) [ADB-5F], with 11 min; and `CC(C)(C)C(NC(=O)c1cn(CC2CCCCC2)c2ccccc12)C(N)=O` (centres undefined) [ADB-CHMICA], with 11.7 min; and `CC(C)(C)C(NC(=O)c1nn(Cc2ccc(F)cc2)c2ccccc12)C(N)=O` (centres undefined) [ADB-FUBINACA], with 10.3 min. Take `CC(C)(C)C(NC(=O)c1nn(CCCCCF)c2ccccc12)C(N)=O` (centres undefined) [ADB-PINACA-5F]: the LC retention time is 9.86 min. The value for `CCCCCn1nc(C(=O)NC(C(N)=O)C(C)(C)C)c2ccccc21` (centres undefined) [ADB-PINACA] was 11.2 min; that for `CC(C)(C)C(NC(=O)c1cn(CCCCCF)c2ccccc12)C(N)=O` (centres undefined) [ADBICA-5F] was 9.72 min. Turning to `CCCCCn1cc(C(=O)NC(C(N)=O)C(C)(C)C)c2ccccc21` (centres undefined) [ADBICA], the LC retention time is 11.1 min. The value for `CCCCCn1nc(C(=O)NC23CC4CC(CC(C4)C2)C3)c2ccccc21` [AKB48 (APINACA)] was 14 min; that for `O=C(NC12CC3CC(CC(C3)C1)C2)c1nn(CCCCCF)c2ccccc12` [AKB48-5F (5F-APINACA)] was 12.9 min; that for `O=C(c1ccccc1I)c1cn(CCCCCF)c2ccccc12` [AM-694] was 10.5 min. Then `CN1CCCCC(n2cc(C(=O)c3cccc4ccccc34)c3ccccc32)C1` (centres undefined) [AM-1220-Azepane], with 8.61 min; and `CN1CCCCC1Cn1cc(C(=O)c2cccc3ccccc23)c2ccccc21` (centres undefined) [AM-1220], with 8.09 min; and `CN1CCCCC1Cn1cc(C(=O)C23CC4CC(CC(C4)C2)C3)c2ccccc21` (centres undefined) [AM-1248], with 9.94 min. On to `O=C(c1cccc2ccccc12)c1cn(CCCCCF)c2ccccc12` [AM-2201], for which the LC retention time was 11.2 min. On to `N#CCCCCn1cc(C(=O)c2cccc3ccccc23)c2ccccc21` [AM-2232], for which the LC retention time is 9.69 min. In the case of `CN1CCCCC1Cn1cc(C(=O)c2ccccc2I)c2ccccc21` (centres undefined) [AM-2233], the LC retention time is 7.11 min. As to `COC(=O)C(NC(=O)c1nn(CCCCCF)c2ccccc12)C(C)C` (centres undefined) [AMB-5F], the LC retention time is 10.5 min. The value for `COCCC(N)C(=O)O` (centres undefined) [AMB] was 11.8 min.

`CC(=O)N(C)N(C(=O)C(=O)N(C)C)c1ccccc1` [AMDOPH]: the LC retention time was 5.06 min. For the molecule `CC(N)Cc1c[nH]c2ccccc12` (stereo not drawn) [AMT (Alpha-Methyltryptamine)], the LC retention time was 4.44 min. Turning to `CCCCCn1cc(C(=O)NC23CC4CC(CC(C4)C2)C3)c2ccccc21` [APICA], the LC retention time is 13.2 min. The value for `CC(=O)NCCCS(=O)(=O)O` [Acamprosat] was 1.4 min. Then `CCCC(=O)Nc1ccc(OCC(O)CNC(C)C)c(C(C)=O)c1` (centres undefined) [Acebutolol], with 4.78 min. Turning to `CC(=O)OC1CN2CCC1CC2` (centres undefined) [Aceclidine], the LC retention time was 4.87 min. As for `O=C(O)COC(=O)Cc1ccccc1Nc1c(Cl)cccc1Cl` [Aceclofenac], the LC retention time was 9.2 min. Then `COc1ccc2c(c1)c(CC(=O)OCC(=O)O)c(C)n2C(=O)c1ccc(Cl)cc1` [Acemetacin], with 9.9 min; and `COP(=O)(NC(C)=O)SC` (centres undefined) [Acephate], with 3.11 min; and `CC(=O)c1ccc2c(c1)N(CCCN(C)C)c1ccccc1S2` [Acepromazine], with 7.47 min. On to `CC(=O)c1ccc2c(c1)N(CC(C)N(C)C)c1ccccc1S2` (centres undefined) [Aceprometazine], for which the LC retention time is 7.26 min. In the case of `CC(=O)Nc1ccc(-c2ccc(C=NN3CC(=O)NC3=O)o2)cc1` [Acetaminodantrolene], the LC retention time is 5.67 min. The value for `CC(=NC#N)N(C)Cc1ccc(Cl)nc1` [Acetamiprid] was 5.17 min; that for `CC(=O)Nc1nnc(S(N)(=O)=O)s1` [Acetazolamide] was 3.43 min.
